The text below walks through data of paper PMC6667604, “Mechanism of action of antimicrobial peptide P5 truncations against Pseudomonas aeruginosa and Staphylococcus aureus” (AMB Express, 2019).

Structures are written as SMILES. ≈ marks a conversion by molar mass, not a printed value. Read-outs that look alike come from different tables or passages of the source. Peptide text beside a SMILES is read from it. Some results are limits rather than exact numbers.

In one data set the test system is A. baumannii KCTC 2508. Format: cell-based, Acinetobacter baumannii. How it is done:
(§1) We detected the antimicrobial activity of peptides against Gram-negative bacteria (P. aeruginosa ATCC 27853 and A. baumannii KCTC 2508) and Gram-positive bacteria (S. aureus ATCC 25923 and B. subtilis KCTC 2217). The minimum inhibitory concentrations (MICs) of the parental and truncated peptides were determined using the microbroth dilution method, as previously described (Jorgensen [1993]). The bacteria were incubated overnight with shaking at 37 °C. The bacteria were diluted to 2 × 10^5 colony forming units (CFU)/mL in Mueller–Hinton broth (MHB) media. The peptides were serially diluted in 10 mM sodium phosphate buffer and then 50 µL of the bacteria and 50 µL of the peptide solutions were mixed and incubated for 18 h at 37 °C. The MICs were measured as the absorbance at 600 nm using a Versa Max microplate reader (Molecular Devices, Sunnyvale, CA, USA). The samples were analyzed in triplicate.

The test system of the next data set is HaCaT cells. The data set can be described thus: Cytotoxicity, MTT assay. The following applies: 24 h, 1.56 µM. The data set is classed as cell-based, human. On the procedure: Human skin epithelial cells (HaCaT cells) were cultured in Dulbecco’s modified Eagle’s medium (DMEM) with 10% fetal bovine serum (FBS) at 37 °C in 5% CO2. Cytotoxicity was determined using the MTT assay (Deng et al. [2015]). HaCaT cells were plated at 2 × 10^4 cells/well in 96-well plates. After overnight incubation, the peptides were added at various concentrations for 24 h, and then 5 mg/mL of MTT was added to each well. After 1 h, the supernatant was removed and 100 μL of DMSO was added to each well to dissolve the formazan crystals. Cytotoxicity was measured at an absorbance of 570 nm using a microplate reader (VersaMax). The cell viability percentage (cell viability rate) was calculated using the following equation (Kim et al. [2018]): Cell viability percentage%=peptide treated sample[…]×100.
On the technique in general: Tetrazolium assays rely on reduction of a dye to a coloured formazan, in cell work by metabolically active cells.

The subject of a further data set is B. subtilis KCTC 2217. The data set is classed as cell-based, Bacillus subtilis. On the procedure:
as §1

Data set [1] concerns P. aeruginosa ATCC 27853. The data set is classed as cell-based, Pseudomonas aeruginosa. The following applies: ATCC 27853, 18 h. How it is done:
as §1

The test system of data set [2] is S. aureus ATCC 25923. Format: cell-based, Staphylococcus aureus. The following applies: ATCC 25923, 18 h. How it is done: as §1
(§2) The effects of various cations on the antimicrobial activity of P5 and the truncated peptides were determined against P. aeruginosa ATCC 27853 and S. aureus ATCC 25923. Bacteria were treated with the peptides in the presence of NaCl (50, 100, and 150 mM), MgCl2 (0.5, 1, and 2 mM), and FeCl3 (1, 4, and 8 µM). The MIC values were the same as those described above.

The subject of data set [3] is S. aureus ATCC 25923. The data set is classed as cell-based, Staphylococcus aureus. Particulars: ATCC 25923, 18 h. How it is done: as §1
This is another data set of the same source.

Data set [4] concerns P. aeruginosa ATCC 27853. Format: cell-based, Pseudomonas aeruginosa. Particulars: ATCC 27853, 18 h. On the procedure: as §1, §2
This is another data set of the same source.

Data set [5] concerns red blood cells (RBCs) from mice. The data set can be described thus: Hemolytic activity. The following applies: mouse RBCs 8% in PBS, peptide 100 µM, 1 h at 37 °C, absorbance 414 nm, 0.1% Triton X-100 positive control. The data set is classed as cell-based. On the procedure: To determine the hemolytic activities of the peptides against red blood cells (RBCs) from mice, RBCs were centrifuged at 2000×g for 5 min and washed with 1 mL of phosphate-buffered saline solution (PBS) three times. The supernatant was removed and the RBCs were diluted to 8% in PBS. After serial dilution, 60 µL of the RBCs and peptides were added to a 96-well plate and incubated at 37 °C for 1 h. The plate was centrifuged at 1500×g for 10 min, 100 µL of the supernatant was transferred to a new plate, and the absorbance was measured at 414 nm (Versa-Max enzyme-linked immunosorbent assay (ELISA) reader). Additionally, 0.1% Triton X-100 and PBS were used as positive and negative controls, respectively. The hemolytic activity percentage (hemolysis rate) was calculated using the following equation (Han et al. [2016]): Hemolysis percentage%=peptide solution-negative control/positive control-PBS×100.

A word on the MIC: it is the lowest concentration found to suppress growth. The low end stands for inhibition by little substance, the high end for a need for much substance. As to `CC[C@H](C)[C@H](NC(=O)CN)C(=O)NCC(=O)N[C@@H](C)C(=O)N[C@H](C(=O)N[C@@H](CC(C)C)C(=O)N[C@@H](CCCCN)C(=O)N[C@H](C(=O)N[C@@H](CC(C)C)C(=O)N[C@H](C(=O)N[C@H](C(=O)NCC(=O)N[C@@H](CC(C)C)C(=O)N1CCC[C@H]1C(=O)N[C@@H](C)C(=O)N[C@@H](CC(C)C)C(=O)N[C@H](C(=O)N[C@@H](CO)C(=O)N[C@@H](Cc1c[nH]c2ccccc12)C(=O)N[C@H](C(=O)N[C@@H](CCCCN)C(=O)N[C@@H](CCCNC(=N)N)C(=O)N[C@@H](CCCCN)C(=O)N[C@@H](CCCNC(=N)N)C(=O)N[C@@H](CCC(N)=O)C(=O)N[C@@H](CCC(N)=O)C(N)=O)[C@@H](C)CC)[C@@H](C)CC)[C@@H](C)O)[C@@H](C)O)C(C)C)C(C)C` [Melittin, reference compound], the MIC with A. baumannii KCTC 2508 (A. baumannii KCTC 2508, MHB, 2 × 10^5 CFU/mL, 18 h at 37 °C, absorbance 600 nm, triplicate) came to 1.56 µM (≈ 4.44 µg/mL); in the data set on B. subtilis KCTC 2217 (B. subtilis KCTC 2217, MHB, 2 × 10^5 CFU/mL, 18 h at 37 °C, absorbance 600 nm, triplicate), 0.78 µM (≈ 2.22 µg/mL). The cytotoxicity result in the data set on HaCaT cells is “highly toxic”.
As to `CC(C)C[C@H](NC(=O)[C@H](CC(C)C)NC(=O)[C@H](CCCCN)NC(=O)[C@H](CCCCN)NC(=O)[C@H](CC(C)C)NC(=O)[C@H](CC(C)C)NC(=O)[C@@H]1CCCN1C(=O)[C@H](CCCCN)NC(=O)[C@H](CCCCN)NC(=O)[C@H](CC(C)C)NC(=O)[C@H](CC(C)C)NC(=O)[C@H](CCCCN)NC(=O)[C@H](CCCCN)NC(=O)[C@H](Cc1c[nH]c2ccccc12)NC(=O)[C@@H](N)CCCCN)C(=O)N[C@@H](CCCCN)C(N)=O` [P5-CT1] (H-KWKKLLKKPLLKKLLK-NH2), the MIC is 1.56 µM (≈ 3.13 µg/mL) with P. aeruginosa ATCC 27853 [1]; 0.78 µM (≈ 1.56 µg/mL) in the data set on S. aureus ATCC 25923 [2]; 3.13 µM (≈ 6.27 µg/mL) with A. baumannii KCTC 2508 (KCTC 2508, 18 h); 1.56 µM (≈ 3.13 µg/mL) with S. aureus ATCC 25923 [3]; 1.56 µM (≈ 3.13 µg/mL) in the data set on B. subtilis KCTC 2217 (KCTC 2217, 18 h).
For `CC(C)C[C@H](NC(=O)[C@H](CCCCN)NC(=O)[C@H](CCCCN)NC(=O)[C@H](CC(C)C)NC(=O)[C@H](CC(C)C)NC(=O)[C@@H]1CCCN1C(=O)[C@H](CCCCN)NC(=O)[C@H](CCCCN)NC(=O)[C@H](CC(C)C)NC(=O)[C@H](CC(C)C)NC(=O)[C@H](CCCCN)NC(=O)[C@H](CCCCN)NC(=O)[C@H](Cc1c[nH]c2ccccc12)NC(=O)[C@@H](N)CCCCN)C(N)=O` [P5-CT2] (H-KWKKLLKKPLLKKL-NH2), the MIC in the data set with P. aeruginosa ATCC 27853 [1] is recorded as 6.25 µM (≈ 11 µg/mL); against A. baumannii KCTC 2508 (KCTC 2508, 18 h) it was 12.5 µM (≈ 22 µg/mL); in the data set with S. aureus ATCC 25923 [3] it was 1.56 µM (≈ 2.75 µg/mL); in the data set with B. subtilis KCTC 2217 (KCTC 2217, 18 h), 3.13 µM (≈ 5.52 µg/mL).
As for `CC(C)C[C@H](NC(=O)[C@H](CC(C)C)NC(=O)[C@@H]1CCCN1C(=O)[C@H](CCCCN)NC(=O)[C@H](CCCCN)NC(=O)[C@H](CC(C)C)NC(=O)[C@H](CC(C)C)NC(=O)[C@H](CCCCN)NC(=O)[C@H](CCCCN)NC(=O)[C@H](Cc1c[nH]c2ccccc12)NC(=O)[C@@H](N)CCCCN)C(=O)N[C@@H](CCCCN)C(N)=O` [P5-CT3] (H-KWKKLLKKPLLK-NH2), the MIC with P. aeruginosa ATCC 27853 [1] is listed as over 25 µM; against P. aeruginosa ATCC 27853 [4] it was over 25 µM; in the data set with A. baumannii KCTC 2508 (KCTC 2508, 18 h) it was over 25 µM; in the data set on S. aureus ATCC 25923 [3], 3.13 µM (≈ 4.76 µg/mL); against B. subtilis KCTC 2217 (KCTC 2217, 18 h) it was 6.25 µM (≈ 9.51 µg/mL).
As for `CC(C)C[C@H](NC(=O)[C@H](CCCCN)NC(=O)[C@H](CCCCN)NC(=O)[C@H](CC(C)C)NC(=O)[C@H](CC(C)C)NC(=O)[C@H](CCCCN)NC(=O)[C@H](CCCCN)NC(=O)[C@H](CC(C)C)NC(=O)[C@H](CC(C)C)NC(=O)[C@@H]1CCCN1C(=O)[C@H](CCCCN)NC(=O)[C@H](CCCCN)NC(=O)[C@H](CC(C)C)NC(=O)[C@H](CC(C)C)NC(=O)[C@H](CCCCN)NC(=O)[C@@H](N)CCCCN)C(N)=O` [P5-NT1] (H-KKLLKKPLLKKLLKKL-NH2), the minimal inhibitory concentration (MIC) with P. aeruginosa ATCC 27853 [1] turned out to be 1.56 µM (≈ 3.01 µg/mL); against S. aureus ATCC 25923 [2], 0.78 µM (≈ 1.51 µg/mL); against A. baumannii KCTC 2508 (KCTC 2508, 18 h) it was 3.13 µM (≈ 6.05 µg/mL); in the data set on S. aureus ATCC 25923 [3], 1.56 µM (≈ 3.01 µg/mL); in the data set on B. subtilis KCTC 2217 (KCTC 2217, 18 h), 1.56 µM (≈ 3.01 µg/mL).
As to `CC(C)C[C@H](NC(=O)[C@H](CCCCN)NC(=O)[C@H](CCCCN)NC(=O)[C@H](CC(C)C)NC(=O)[C@H](CC(C)C)NC(=O)[C@H](CCCCN)NC(=O)[C@H](CCCCN)NC(=O)[C@H](CC(C)C)NC(=O)[C@H](CC(C)C)NC(=O)[C@@H]1CCCN1C(=O)[C@H](CCCCN)NC(=O)[C@H](CCCCN)NC(=O)[C@H](CC(C)C)NC(=O)[C@@H](N)CC(C)C)C(N)=O` [P5-NT2] (H-LLKKPLLKKLLKKL-NH2), the MIC came out at 3.13 µM (≈ 5.24 µg/mL) against P. aeruginosa ATCC 27853 [1]; 12.5 µM (≈ 20.9 µg/mL) in the data set on A. baumannii KCTC 2508 (KCTC 2508, 18 h); 1.56 µM (≈ 2.61 µg/mL) against S. aureus ATCC 25923 [3]; 1.56 µM (≈ 2.61 µg/mL) in the data set on B. subtilis KCTC 2217 (KCTC 2217, 18 h).
`CC(C)C[C@H](NC(=O)[C@H](CCCCN)NC(=O)[C@H](CCCCN)NC(=O)[C@H](CC(C)C)NC(=O)[C@H](CC(C)C)NC(=O)[C@H](CCCCN)NC(=O)[C@H](CCCCN)NC(=O)[C@H](CC(C)C)NC(=O)[C@H](CC(C)C)NC(=O)[C@@H]1CCCN1C(=O)[C@H](CCCCN)NC(=O)[C@@H](N)CCCCN)C(N)=O` [P5-NT3] (H-KKPLLKKLLKKL-NH2): the MIC against P. aeruginosa ATCC 27853 [1] is recorded as 6.25 µM (≈ 9.06 µg/mL); in the data set on S. aureus ATCC 25923 [2], 0.78 µM (≈ 1.13 µg/mL); with A. baumannii KCTC 2508 (KCTC 2508, 18 h), 25 µM (≈ 36.2 µg/mL); against S. aureus ATCC 25923 [3], 1.56 µM (≈ 2.26 µg/mL); against B. subtilis KCTC 2217 (KCTC 2217, 18 h), 1.56 µM (≈ 2.26 µg/mL).
With `CC(C)C[C@H](NC(=O)[C@H](CCCCN)NC(=O)[C@H](CCCCN)NC(=O)[C@H](CC(C)C)NC(=O)[C@H](CC(C)C)NC(=O)[C@H](CCCCN)NC(=O)[C@H](CCCCN)NC(=O)[C@H](CC(C)C)NC(=O)[C@H](CC(C)C)NC(=O)[C@@H]1CCCN1C(=O)[C@H](CCCCN)NC(=O)[C@H](CCCCN)NC(=O)[C@H](CC(C)C)NC(=O)[C@H](CC(C)C)NC(=O)[C@H](CCCCN)NC(=O)[C@H](CCCCN)NC(=O)[C@H](Cc1c[nH]c2ccccc12)NC(=O)[C@@H](N)CCCCN)C(N)=O` [P5] (H-KWKKLLKKPLLKKLLKKL-NH2), the minimal inhibitory concentration (MIC) worked out at 3.13 µM (≈ 7.03 µg/mL) against P. aeruginosa ATCC 27853 [1]; 1.56 µM (≈ 3.5 µg/mL) against S. aureus ATCC 25923 [2]; 1.56 µM (≈ 3.5 µg/mL) against A. baumannii KCTC 2508 (KCTC 2508, 18 h); 1.56 µM (≈ 3.5 µg/mL) against S. aureus ATCC 25923 [3]; 1.56 µM (≈ 3.5 µg/mL) against B. subtilis KCTC 2217 (KCTC 2217, 18 h). Besides, the hemolysis entry in data set [5] is reported as “approximately 14%”.
